Key:
HT29 xenograft tumors = experiment: in vivo anti-tumor activity on HT29 xenograft tumors (BRAF V600E colorectal model); design: species or system BALB/c Nude mice; settings: monotherapy PO QD, 140 mpk, 60 mpk or 30 mpk; compared with encorafenib 24 mpk; FIG. 6
Text: (§1) FIG. 1 illustrates a schematic representation of the study design reported in FIG. 2 to and specifies the dosage regime that was used for treating the different cohorts in a colorectal tumour model bearing LS411N xenografts, according to some embodiments. Both models are CRC models and present the BRAF V600E mutation.
FIG. […] Mice were, for example, treated (QD) until day 43 and the graph expresses mean tumour volume [mm3] for the different cohorts.
(§2) FIG. 7 reports in vivo anti-tumor activity of a combination of R07276389 at 140 mpk or of encorafenib at 24 mpk, in each instance with 20 mpk of cetuximab on HT29 xenograft tumors in BALB/c Nude mice (10 mice/cohort), according to some embodiments. Monotherapy controls were, for example, also included and the mice were treated (QD) until day 43 and the graph expresses mean tumour volume [mm3] for the different cohorts.
as §2, with “FIG. 8” for “FIG. 7”, “at 60” for “at 140”, “cohorts. […]” for “cohorts.”

LS411N xenograft tumors = experiment: in vivo anti-tumor activity on LS411N xenograft tumors (BRAF V600E colorectal model); design: species or system BALB/c Nude mice; settings: monotherapy PO QD, 20 mpk, 50 mpk or 140 mpk; compared with encorafenib 24 mpk; FIG. 2
Text: as §1
FIG. 2 […], or of encorafenib at 24 mpk on LS411N xenograft tumors in BALB/c Nude mice (10 mice/cohort), according to some embodiments. Mice were, for example, treated (QD) until day 43 and the graphs express mean tumour volume [mm3] for the different cohorts.
as §2, with “FIG. 3” for “FIG. 7”, “on LS411N” for “on HT29”
FIG. 4 reports in vivo anti-tumor activity of a combination of R07276389 at 60 mpk or of encorafenib at 24 mpk, in each instance with 20 mpk of cetuximab on LS411N xenograft tumors in BALB/c Nude mice (10 mice/cohort), according to some embodiments. […]

## Cn1cnc2ccc(Oc3c(F)ccc(NS(=O)(=O)N4CC[C@@H](F)C4)c3C#N)cc2c1=O [Compound R07276389, (3R)-N-[2-cyano-4-fluoro-3-(3-methyl-4-oxo-quinazolin-6-yl)oxy-phenyl]-3-fluoro-pyrrolidine-1-sulfonamide]
HT29 xenograft tumors
  tumour growth inhibition: dose-dependent tumour growth inhibition that was significantly higher when compared with encorafenib
LS411N xenograft tumors
  tumour growth inhibition: dose-dependent tumour growth inhibition that was significantly higher when compared with encorafenib
